Measured values from patent US9980943B2, “Methods of treating muscular dystrophy” (BOARD OF REGENTS OF THE NEVADA SYSTEM OF HIGHER EDUCATION, …, priority 2013, dated 2018).

Key:
Format in all cases: cell-based, mouse
[1] = system: α7 integrin (LacZ reporter in α7βgal+/− myoblasts); test: Myoblast α7+/LacZ integrin FDG assay (Burkin assay in myoblasts, 96-well); conditions: 96-well; for Burkin Assay in Myoblasts, signal relative to DMSO: α7+/LacZ myoblasts; for Burkin Assay in Myoblasts, value relative to DMSO: SU9516 analogs, N=3-6
[2] = system: α7 integrin (LacZ reporter in α7+/LacZ myotubes); test: Myotube α7 integrin FDG assay (Burkin assay in myotubes, 96-well); conditions: for Burkin Assay in Myotubes, value relative to DMSO: SU9516 analogs, 96-well, N=3-6
[3] = system: β-galactosidase in CMV-LacZ C2C12 myoblasts; test: CMV-LacZ secondary screen in C2C12 myoblasts (β-Gal stabilizing assay); conditions: for CMV-LACZ in Myoblasts (β-galactosidase activity relative to DMSO): CMV-LacZ C2C12 myoblasts; for CMV-LACZ in Myoblasts, value relative to DMSO: SU9516 analogs, C2C12 CMV-LacZ, N=2
How it was run: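 C2C12 myoblasts stably carrying a linearized CMV-driven LacZ construct, clone chosen by β-gal level in the myoblast FDG assay. Compounds tested in 96-well dose-response at 0.5, 1, 5, 10, 20 and 40 μM, N=2 replicates per point, to detect β-gal stabilization.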

[4] = system: β-galactosidase in CMV-LacZ C2C12 myotubes; test: CMV-LacZ secondary screen in C2C12 myotubes (β-Gal stabilizing assay); conditions: for CMV-LACZ in Myotubes, signal relative to DMSO: C2C12 CMV-LacZ myotubes, fold relative to DMSO; for CMV-LACZ in Myotubes, value relative to DMSO: SU9516 analogs, C2C12 CMV-LacZ, N=2
How it was run: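 Dose-response runs at 0.5–40 μM (0.5, 1, 5, 10, 20, 40 μM; N=2 per point) used a clonal C2C12 line carrying CMV-LacZ. Cells were assayed as myoblasts or as differentiated myotubes, and β-galactosidase levels were read with the FDG fluorogenic substrate.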

Compound: CC1(C)Cc2ccccc2-c2nc3n(c(=O)c21)CCS3 [MLS000711491-01]
- Burkin Assay in Myoblasts, signal relative to DMSO ([1]; 0.5 uM): 1.214
- Burkin Assay in Myoblasts, signal relative to DMSO ([1]; 1 uM): 1.0159
- Burkin Assay in Myoblasts, signal relative to DMSO ([1]; 5 uM): 1.02
- Burkin Assay in Myoblasts, signal relative to DMSO ([1]; 10 uM): 1.024
- Burkin Assay in Myoblasts, signal relative to DMSO ([1]; 20 uM): 0.7949
- Burkin Assay in Myoblasts, signal relative to DMSO ([1]; 40 uM): 0.5793
- Burkin Assay in Myotubes, α7 integrin LacZ reporter signal relative to DMSO ([2]; 0.5 uM): 1.07
- Burkin Assay in Myotubes, α7 integrin LacZ reporter signal relative to DMSO ([2]; 1 uM): 1.062
- Burkin Assay in Myotubes, α7 integrin LacZ reporter signal relative to DMSO ([2]; 5 uM): 0.9629
- Burkin Assay in Myotubes, α7 integrin LacZ reporter signal relative to DMSO ([2]; 10 uM): 0.9462
- Burkin Assay in Myotubes, α7 integrin LacZ reporter signal relative to DMSO ([2]; 20 uM): 0.671
- Burkin Assay in Myotubes, α7 integrin LacZ reporter signal relative to DMSO ([2]; 40 uM): 0.579
- CMV-LACZ in Myoblasts (β-galactosidase activity relative to DMSO) ([3]; 0.5 uM): 1.0889
- CMV-LACZ in Myoblasts (β-galactosidase activity relative to DMSO) ([3]; 1 uM): 1.1060
- CMV-LACZ in Myoblasts (β-galactosidase activity relative to DMSO) ([3]; 5 uM): 0.9088
- CMV-LACZ in Myoblasts (β-galactosidase activity relative to DMSO) ([3]; 10 uM): 1.0199
- CMV-LACZ in Myoblasts (β-galactosidase activity relative to DMSO) ([3]; 20 uM): 1.5063
- CMV-LACZ in Myoblasts (β-galactosidase activity relative to DMSO) ([3]; 40 uM): 0.7800
- CMV-LACZ in Myotubes, signal relative to DMSO ([4]; 0.5 uM): 0.9495
- CMV-LACZ in Myotubes, signal relative to DMSO ([4]; 1 uM): 0.9095
- CMV-LACZ in Myotubes, signal relative to DMSO ([4]; 5 uM): 0.9993
- CMV-LACZ in Myotubes, signal relative to DMSO ([4]; 10 uM): 0.8645
- CMV-LACZ in Myotubes, signal relative to DMSO ([4]; 20 uM): 1.1318
- CMV-LACZ in Myotubes, signal relative to DMSO ([4]; 40 uM): 0.9929

Compound: NC(=O)COc1ccc(C(=O)/C=C2/C(=O)Nc3ccccc32)cc1 [MLS001214300-01]
- Burkin Assay in Myoblasts, value relative to DMSO ([1]; 0.5 uM): 1.211
- Burkin Assay in Myoblasts, value relative to DMSO ([1]; 1 uM): 0.9366
- Burkin Assay in Myoblasts, value relative to DMSO ([1]; 5 uM): 0.8041
- Burkin Assay in Myoblasts, value relative to DMSO ([1]; 10 uM): 0.353
- Burkin Assay in Myoblasts, value relative to DMSO ([1]; 20 uM): 0.1847
- Burkin Assay in Myoblasts, value relative to DMSO ([1]; 40 uM): 0.02593
- Burkin Assay in Myotubes, value relative to DMSO ([2]; 0.5 uM): 1.019
- Burkin Assay in Myotubes, value relative to DMSO ([2]; 1 uM): 1.039
- Burkin Assay in Myotubes, value relative to DMSO ([2]; 5 uM): 1.091
- Burkin Assay in Myotubes, value relative to DMSO ([2]; 10 uM): 0.8733
- Burkin Assay in Myotubes, value relative to DMSO ([2]; 20 uM): 0.7447
- Burkin Assay in Myotubes, value relative to DMSO ([2]; 40 uM): 0.3178
- CMV-LACZ in Myoblasts, value relative to DMSO ([3]; 0.5 uM): 1.0446
- CMV-LACZ in Myoblasts, value relative to DMSO ([3]; 1 uM): 0.9403
- CMV-LACZ in Myoblasts, value relative to DMSO ([3]; 5 uM): 0.7949
- CMV-LACZ in Myoblasts, value relative to DMSO ([3]; 10 uM): 1.1047
- CMV-LACZ in Myoblasts, value relative to DMSO ([3]; 20 uM): 0.4007
- CMV-LACZ in Myoblasts, value relative to DMSO ([3]; 40 uM): 0.1793
- CMV-LACZ in Myotubes, value relative to DMSO ([4]; 0.5 uM): 0.9819
- CMV-LACZ in Myotubes, value relative to DMSO ([4]; 1 uM): 0.8924
- CMV-LACZ in Myotubes, value relative to DMSO ([4]; 5 uM): 1.0550
- CMV-LACZ in Myotubes, value relative to DMSO ([4]; 10 uM): 1.0956
- CMV-LACZ in Myotubes, value relative to DMSO ([4]; 20 uM): 6.2635
- CMV-LACZ in Myotubes, value relative to DMSO ([4]; 40 uM): 0.7118

Compound: O=c1[nH]c(SCc2ccc(Cl)cc2)nc2ccsc12 [MLS000755214-01]
- Burkin Assay in Myoblasts, signal relative to DMSO ([1]; 0.5 uM): 1.077
- Burkin Assay in Myoblasts, signal relative to DMSO ([1]; 1 uM): 1.021
- Burkin Assay in Myoblasts, signal relative to DMSO ([1]; 5 uM): 0.9757
- Burkin Assay in Myoblasts, signal relative to DMSO ([1]; 10 uM): 0.9635
- Burkin Assay in Myoblasts, signal relative to DMSO ([1]; 20 uM): 0.8448
- Burkin Assay in Myoblasts, signal relative to DMSO ([1]; 40 uM): 0.861
- Burkin Assay in Myotubes, α7 integrin LacZ reporter signal relative to DMSO ([2]; 0.5 uM): 1.01
- Burkin Assay in Myotubes, α7 integrin LacZ reporter signal relative to DMSO ([2]; 1 uM): 0.9661
- Burkin Assay in Myotubes, α7 integrin LacZ reporter signal relative to DMSO ([2]; 5 uM): 0.9321
- Burkin Assay in Myotubes, α7 integrin LacZ reporter signal relative to DMSO ([2]; 10 uM): 1.0353
- Burkin Assay in Myotubes, α7 integrin LacZ reporter signal relative to DMSO ([2]; 20 uM): 0.9655
- Burkin Assay in Myotubes, α7 integrin LacZ reporter signal relative to DMSO ([2]; 40 uM): 0.8312
- CMV-LACZ in Myoblasts (β-galactosidase activity relative to DMSO) ([3]; 0.5 uM): 1.0190
- CMV-LACZ in Myoblasts (β-galactosidase activity relative to DMSO) ([3]; 1 uM): 1.1650
- CMV-LACZ in Myoblasts (β-galactosidase activity relative to DMSO) ([3]; 5 uM): 0.9281
- CMV-LACZ in Myoblasts (β-galactosidase activity relative to DMSO) ([3]; 10 uM): 1.0994
- CMV-LACZ in Myoblasts (β-galactosidase activity relative to DMSO) ([3]; 20 uM): 1.0835
- CMV-LACZ in Myoblasts (β-galactosidase activity relative to DMSO) ([3]; 40 uM): 0.8172
- CMV-LACZ in Myotubes, signal relative to DMSO ([4]; 0.5 uM): 0.9543
- CMV-LACZ in Myotubes, signal relative to DMSO ([4]; 1 uM): 0.8600
- CMV-LACZ in Myotubes, signal relative to DMSO ([4]; 5 uM): 1.0763
- CMV-LACZ in Myotubes, signal relative to DMSO ([4]; 10 uM): 1.0591
- CMV-LACZ in Myotubes, signal relative to DMSO ([4]; 20 uM): 0.9280
- CMV-LACZ in Myotubes, signal relative to DMSO ([4]; 40 uM): 1.0190
